From US20040253262A1, “Biological compositions and methods for treatment of lymphoma” (priority 2003, published 2004)

Experiments:
spontaneous lymphoma = assay: Inbred PBA mouse model of lymphoma, survival after treatment; assay type: in vivo; conditions: 36 at start
Protocol: A model based on inbred PBA mice which manifest a high incidence of tumor was used (Bailey et al., 1970, J Natl. Cancer Inst. 45(1):59-73). Mice six to eight weeks old were treated by the method as described in Shiyan Dongwu Yu Zhongliu Yanjiu (Experimental Animal & Tumor Research), April 2000, by Chinese Medical Technology Publisher.
In the first series, the mice in group AY received 0.3 ml of the oral composition of the invention per day. The mice in group NY received 0.3 ml per day of a composition comprising at a similar concentration the same strain of yeast which had not been activated and conditioned. The mice in group CTX received subcutaneous injection of cyclophosphamide at a dose of 30 mg per kg body weight per day. […] The experiment was carried out over a 30-day treatment period.
In the second series, the mice in group 2AY received 0.5 ml of the oral composition of the invention per day. The mice in group 2NY received 0.5 ml per day of a composition comprising the same strain of yeast which had not been activated and conditioned at a similar concentration. The mice in group 2CTX received subcutaneous injection of cyclophosphamide at a dose of 45 mg per kg body weight per day. […] The experiment was carried out over a 60-day treatment period.
After the 30-day or 60-day treatment, the mice were fed a normal diet and allowed to live under the same environment. The health and survival of the mice were observed and compared over 180 days.
Each group consisted of 36 mice at the beginning of the experiment (3 repeats). The total number of surviving mice in each group were counted at the end of every month up to 6 months after treatment stopped.

Burkitt's lymphoma cells = assay: Athymic nude mouse model with transplanted Burkitt's lymphoma cells, survival after treatment; assay type: in vivo; conditions: 36 at start
Protocol: A model based on transplantation of Burkitt's lymphoma cell in athymic nude mice was used (Gurtsevitch et al., 1988, Int J Cancer 15;41(1):87-95). The model was set up as described in Shiyan Dongwu Yu Zhongliu Yanjiu (Experimental Animal & Tumor Research), April 2000, by Chinese Medical Technology Publisher. Essentially, seven week old mice were injected intravenously each with 1×10^6 Burkitt's lymphoma cells.
Twenty-one days after the injection of lymphoma cells, the mice were divided into two series of five groups: one series received treatment for 30 days, the other series received treatment for 60 days. […] The mice in group A received saline orally. The mice in group B received subcutaneous injection of cyclophosphamide at a dose of 30 mg per kg body weight per day. Group C received subcutaneous injection of cyclophosphamide at a dose of 45 mg per kg body weight per day. The mice in group D received 0.3 ml of the oral composition per day. Group E received 0.5 ml of the oral composition per day.
After the 30-day or 60-day treatment, the mice were fed a normal diet and allowed to live under the same environment. The health and survival of the nude mice were observed and compared over 360 days.
Each group consisted of 36 mice at the beginning of the experiment (3 repeats). The total number of surviving mice in each group were counted at the end of every month up to 12 months after treatment stopped.

O=P1(N(CCCl)CCCl)NCCCO1 (stereo not drawn) [cyclophosphamide]
total number of surviving mice (spontaneous lymphoma; 30 mg/kg per day per table head (45 mg/kg elsewhere in the source) s.c., 60-day treatment (group 2CTX), day 0 after treatment period): 36 | total number of surviving mice (spontaneous lymphoma; 30 mg/kg per day per table head (45 mg/kg elsewhere in the source) s.c., 60-day treatment (group 2CTX), day 30 after treatment period): 36 | total number of surviving mice (spontaneous lymphoma; 30 mg/kg per day per table head (45 mg/kg elsewhere in the source) s.c., 60-day treatment (group 2CTX), day 60 after treatment period): 29 | total number of surviving mice (spontaneous lymphoma; 30 mg/kg per day per table head (45 mg/kg elsewhere in the source) s.c., 60-day treatment (group 2CTX), day 90 after treatment period): 21 | total number of surviving mice (spontaneous lymphoma; 30 mg/kg per day per table head (45 mg/kg elsewhere in the source) s.c., 60-day treatment (group 2CTX), day 120 after treatment period): 14 | total number of surviving mice (spontaneous lymphoma; 30 mg/kg per day per table head (45 mg/kg elsewhere in the source) s.c., 60-day treatment (group 2CTX), day 150 after treatment period): 14 | total number of surviving mice (spontaneous lymphoma; 30 mg/kg per day per table head (45 mg/kg elsewhere in the source) s.c., 60-day treatment (group 2CTX), day 180 after treatment period): 8 | total number of surviving mice (spontaneous lymphoma; 30 mg/kg per day s.c., 30-day treatment, day 0 after treatment period): 36 | total number of surviving mice (spontaneous lymphoma; 30 mg/kg per day s.c., 30-day treatment, day 30 after treatment period): 33 | total number of surviving mice (spontaneous lymphoma; 30 mg/kg per day s.c., 30-day treatment, day 60 after treatment period): 27 | total number of surviving mice (spontaneous lymphoma; 30 mg/kg per day s.c., 30-day treatment, day 90 after treatment period): 19 | total number of surviving mice (spontaneous lymphoma; 30 mg/kg per day s.c., 30-day treatment, day 120 after treatment period): 17 | total number of surviving mice (spontaneous lymphoma; 30 mg/kg per day s.c., 30-day treatment, day 150 after treatment period): 0 | total number of surviving mice (spontaneous lymphoma; 30 mg/kg per day s.c., 30-day treatment, day 180 after treatment period): 0 | total number of surviving mice (Burkitt's lymphoma cells; 30 mg/kg per day s.c. (group B), 30-day treatment, day 0 after treatment period): 36 | total number of surviving mice (Burkitt's lymphoma cells; 30 mg/kg per day s.c. (group B), 30-day treatment, day 30 after treatment period): 33 | total number of surviving mice (Burkitt's lymphoma cells; 30 mg/kg per day s.c. (group B), 30-day treatment, day 60 after treatment period): 24 | total number of surviving mice (Burkitt's lymphoma cells; 30 mg/kg per day s.c. (group B), 30-day treatment, day 90 after treatment period): 14 | total number of surviving mice (Burkitt's lymphoma cells; 30 mg/kg per day s.c. (group B), 30-day treatment, day 120 after treatment period): 5 | total number of surviving mice (Burkitt's lymphoma cells; 30 mg/kg per day s.c. (group B), 30-day treatment, day 150 after treatment period): 3 | total number of surviving mice (Burkitt's lymphoma cells; 30 mg/kg per day s.c. (group B), 30-day treatment, day 180 after treatment period): 1 | total number of surviving mice (Burkitt's lymphoma cells; 30 mg/kg per day s.c. (group B), 30-day treatment, day 210 after treatment period): 0 | total number of surviving mice (Burkitt's lymphoma cells; 30 mg/kg per day s.c. (group B), 30-day treatment, day 240 after treatment period): 0 | total number of surviving mice (Burkitt's lymphoma cells; 30 mg/kg per day s.c. (group B), 30-day treatment, day 270 after treatment period): 0 | total number of surviving mice (Burkitt's lymphoma cells; 30 mg/kg per day s.c. (group B), 30-day treatment, day 300 after treatment period): 0 | total number of surviving mice (Burkitt's lymphoma cells; 30 mg/kg per day s.c. (group B), 30-day treatment, day 330 after treatment period): 0 | total number of surviving mice (Burkitt's lymphoma cells; 30 mg/kg per day s.c. (group B), 30-day treatment, day 360 after treatment period): 0 | total number of surviving mice (Burkitt's lymphoma cells; 30 mg/kg per day s.c. (group B), 60-day treatment, day 0 after treatment period): 35 | total number of surviving mice (Burkitt's lymphoma cells; 30 mg/kg per day s.c. (group B), 60-day treatment, day 30 after treatment period): 35 | total number of surviving mice (Burkitt's lymphoma cells; 30 mg/kg per day s.c. (group B), 60-day treatment, day 60 after treatment period): 33 | total number of surviving mice (Burkitt's lymphoma cells; 30 mg/kg per day s.c. (group B), 60-day treatment, day 90 after treatment period): 24 | total number of surviving mice (Burkitt's lymphoma cells; 30 mg/kg per day s.c. (group B), 60-day treatment, day 120 after treatment period): 19 | total number of surviving mice (Burkitt's lymphoma cells; 30 mg/kg per day s.c. (group B), 60-day treatment, day 150 after treatment period): 9 | total number of surviving mice (Burkitt's lymphoma cells; 30 mg/kg per day s.c. (group B), 60-day treatment, day 180 after treatment period): 5 | total number of surviving mice (Burkitt's lymphoma cells; 30 mg/kg per day s.c. (group B), 60-day treatment, day 210 after treatment period): 2 | total number of surviving mice (Burkitt's lymphoma cells; 30 mg/kg per day s.c. (group B), 60-day treatment, day 240 after treatment period): 0 | total number of surviving mice (Burkitt's lymphoma cells; 30 mg/kg per day s.c. (group B), 60-day treatment, day 270 after treatment period): 0 | total number of surviving mice (Burkitt's lymphoma cells; 30 mg/kg per day s.c. (group B), 60-day treatment, day 300 after treatment period): 0 | total number of surviving mice (Burkitt's lymphoma cells; 30 mg/kg per day s.c. (group B), 60-day treatment, day 330 after treatment period): 0 | total number of surviving mice (Burkitt's lymphoma cells; 30 mg/kg per day s.c. (group B), 60-day treatment, day 360 after treatment period): 0 | total number of surviving mice (Burkitt's lymphoma cells; 45 mg/kg per day s.c. (group C), 30-day treatment, day 0 after treatment period): 35 | total number of surviving mice (Burkitt's lymphoma cells; 45 mg/kg per day s.c. (group C), 30-day treatment, day 30 after treatment period): 35 | total number of surviving mice (Burkitt's lymphoma cells; 45 mg/kg per day s.c. (group C), 30-day treatment, day 60 after treatment period): 27 | total number of surviving mice (Burkitt's lymphoma cells; 45 mg/kg per day s.c. (group C), 30-day treatment, day 90 after treatment period): 21 | total number of surviving mice (Burkitt's lymphoma cells; 45 mg/kg per day s.c. (group C), 30-day treatment, day 120 after treatment period): 17 | total number of surviving mice (Burkitt's lymphoma cells; 45 mg/kg per day s.c. (group C), 30-day treatment, day 150 after treatment period): 11 | total number of surviving mice (Burkitt's lymphoma cells; 45 mg/kg per day s.c. (group C), 30-day treatment, day 180 after treatment period): 4 | total number of surviving mice (Burkitt's lymphoma cells; 45 mg/kg per day s.c. (group C), 30-day treatment, day 210 after treatment period): 2 | total number of surviving mice (Burkitt's lymphoma cells; 45 mg/kg per day s.c. (group C), 30-day treatment, day 240 after treatment period): 1 | total number of surviving mice (Burkitt's lymphoma cells; 45 mg/kg per day s.c. (group C), 30-day treatment, day 270 after treatment period): 0 | total number of surviving mice (Burkitt's lymphoma cells; 45 mg/kg per day s.c. (group C), 30-day treatment, day 300 after treatment period): 0 | total number of surviving mice (Burkitt's lymphoma cells; 45 mg/kg per day s.c. (group C), 30-day treatment, day 330 after treatment period): 0 | total number of surviving mice (Burkitt's lymphoma cells; 45 mg/kg per day s.c. (group C), 30-day treatment, day 360 after treatment period): 0 | total number of surviving mice (Burkitt's lymphoma cells; 45 mg/kg per day s.c. (group C), 60-day treatment, day 0 after treatment period): 34 | total number of surviving mice (Burkitt's lymphoma cells; 45 mg/kg per day s.c. (group C), 60-day treatment, day 30 after treatment period): 34 | total number of surviving mice (Burkitt's lymphoma cells; 45 mg/kg per day s.c. (group C), 60-day treatment, day 60 after treatment period): 34 | total number of surviving mice (Burkitt's lymphoma cells; 45 mg/kg per day s.c. (group C), 60-day treatment, day 90 after treatment period): 27 | total number of surviving mice (Burkitt's lymphoma cells; 45 mg/kg per day s.c. (group C), 60-day treatment, day 120 after treatment period): 19 | total number of surviving mice (Burkitt's lymphoma cells; 45 mg/kg per day s.c. (group C), 60-day treatment, day 150 after treatment period): 12 | total number of surviving mice (Burkitt's lymphoma cells; 45 mg/kg per day s.c. (group C), 60-day treatment, day 180 after treatment period): 7 | total number of surviving mice (Burkitt's lymphoma cells; 45 mg/kg per day s.c. (group C), 60-day treatment, day 210 after treatment period): 3 | total number of surviving mice (Burkitt's lymphoma cells; 45 mg/kg per day s.c. (group C), 60-day treatment, day 240 after treatment period): 0 | total number of surviving mice (Burkitt's lymphoma cells; 45 mg/kg per day s.c. (group C), 60-day treatment, day 270 after treatment period): 0 | total number of surviving mice (Burkitt's lymphoma cells; 45 mg/kg per day s.c. (group C), 60-day treatment, day 300 after treatment period): 0 | total number of surviving mice (Burkitt's lymphoma cells; 45 mg/kg per day s.c. (group C), 60-day treatment, day 330 after treatment period): 0 | total number of surviving mice (Burkitt's lymphoma cells; 45 mg/kg per day s.c. (group C), 60-day treatment, day 360 after treatment period): 0
